Structures can show the parent of a compound that is named as a salt.
Assay: Solubility in 62.5% (v/v) aqueous organic solvents, quantification in HPLC
Format: physicochemical
Conditions: for solubility at 30 min: aqueous organic solvent, 20 °C, aqueous with cosolvent or surfactant or cyclodextrin, thermodynamic from solid
Method: The solubility of (+)-(1R,5S,6S)-6-[(R)-1-hydroxyethyl]-1-methyl-2-[(2S,4S)-2-[(3R)-pyrrolidine-3-yl-(R)-hydroxymethyl]pyrrolidine-4-yl]thio-1-carbapen-2-em-3-carboxylic acid monohydrochloride monohydrate and trihydrate in various aqueous organic solvents at a concentration of 62.5% (v/v) in water at 20° C. was determined by HPLC in the following manner.

C[C@@H](O)[C@H]1C(=O)N2C(C(=O)O)=C(S[C@@H]3CN[C@H]([C@H](O)[C@@H]4CCNC4)C3)[C@H](C)[C@H]12 [monohydrate, (+)-(1R,5S,6S)-6-[(R)-1-Hydroxyethyl]-1-methyl-2-[(2S,4S)-2-[(3R)-pyrrolidine-3-yl-(R)-hydroxymethyl]pyrrolidine-4-yl]thio-1-carbapen-2-em-3-carboxylic acid monohydrochloride monohydrate]
solubility (62.5% (v/v) diethylene glycol monoethyl ether in water, 20° C., 30 minutes, monohydrochloride monohydrate): 6560 µg/mL
solubility at 30 min (62.5% (v/v) 1-acetoxy-2-methyl ethane in water): 4180 µg/mL
solubility at 30 min (62.5% (v/v) 1-ethoxy-2-propanol in water): 5060 µg/mL
solubility at 30 min (62.5% (v/v) 1-methoxy-2-propanol in water): 4120 µg/mL
solubility at 30 min (62.5% (v/v) 2-butoxyethanol in water): 13300 µg/mL
solubility at 30 min (62.5% (v/v) 2-ethoxyethanol in water): 6740 µg/mL
solubility at 30 min (62.5% (v/v) 2-isopropoxyethanol in water): 6030 µg/mL
solubility at 30 min (62.5% (v/v) 2-methoxyethanol in water): 5370 µg/mL
solubility at 30 min (62.5% (v/v) 3-methoxy-3-methyl-1-butanol in water): 5930 µg/mL
solubility at 30 min (62.5% (v/v) 3-methoxybutanol in water): 4390 µg/mL
solubility at 30 min (62.5% (v/v) IPA (isopropyl alcohol) in water): 6310 µg/mL
solubility at 30 min (62.5% (v/v) acetonitrile in water): 15800 µg/mL
solubility at 30 min (62.5% (v/v) diethylene glycol monomethyl ether in water): 3930 µg/mL
solubility at 30 min (62.5% (v/v) dimethyl acetamide in water): 4060 µg/mL
solubility at 30 min (62.5% (v/v) dimethyl ether in water): 1930 µg/mL
solubility at 30 min (62.5% (v/v) dimethyl formamide in water): 5030 µg/mL
solubility at 30 min (62.5% (v/v) dimethyl sulfoxide in water): 7500 µg/mL
solubility at 30 min (62.5% (v/v) ethanol in water): 6600 µg/mL
solubility at 30 min (62.5% (v/v) methanol in water): 10200 µg/mL
solubility at 30 min (62.5% (v/v) n-propanol in water): 12300 µg/mL
solubility at 30 min (62.5% (v/v) t-butanol in water): 8650 µg/mL
solubility at 30 min (62.5% (v/v) tetrahydrofuran in water): 7220 µg/mL
solubility at 30 min (62.5% (v/v) triethylene glycol monomethyl ether in water): 2860 µg/mL

Reference: patent US7084268B1, “Carbapenem compound crystals and interjection preparations” (Eisai Co., Ltd., priority 1999, dated 2006)
